Assay results published in ChEMBL document CHEMBL1201862, “PubChem BioAssay data set” (2004).
The source made the active and inactive calls.

Experiments:
[1] = HEp-2 cell cytotoxicity, dose response, cytotoxicity control for RSV inhibitor project, HTS (AID 2410); assay type: functional; details: human respiratory syncytial virus
[2] = biological target: T1, Leucine aminopeptidase (Plasmodium falciparum 3D7, UniProt Q8IL11); assay: P. falciparum M17LAP inhibitors, primary screen, biochemical, fluorogenic H-Leu-NHMec substrate, 1536-well (AID 1619); assay type: functional
T1 sequence (Q8IL11 whole entry): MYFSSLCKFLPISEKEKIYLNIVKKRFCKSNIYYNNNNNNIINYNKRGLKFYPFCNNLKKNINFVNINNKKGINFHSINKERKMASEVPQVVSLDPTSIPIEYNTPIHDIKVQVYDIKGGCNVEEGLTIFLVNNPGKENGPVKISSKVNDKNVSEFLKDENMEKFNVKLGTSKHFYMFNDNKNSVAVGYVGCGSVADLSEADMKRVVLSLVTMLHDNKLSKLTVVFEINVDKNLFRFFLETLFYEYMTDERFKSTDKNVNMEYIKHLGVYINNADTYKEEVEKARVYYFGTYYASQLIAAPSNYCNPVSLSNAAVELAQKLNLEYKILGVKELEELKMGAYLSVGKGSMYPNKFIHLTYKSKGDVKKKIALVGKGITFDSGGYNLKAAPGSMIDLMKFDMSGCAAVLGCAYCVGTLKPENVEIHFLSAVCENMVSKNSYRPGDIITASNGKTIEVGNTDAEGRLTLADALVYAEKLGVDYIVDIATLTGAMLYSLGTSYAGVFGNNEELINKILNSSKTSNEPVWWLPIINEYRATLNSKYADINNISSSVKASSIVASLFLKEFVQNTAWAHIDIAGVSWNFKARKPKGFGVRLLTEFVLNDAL

[3] = biological target: Peroxisome proliferator-activated receptor gamma/Nuclear receptor coactivator 3 (Homo sapiens, UniProt P37231); assay: TR-FRET dose response biochemical High Throughput Screening assay for agonists of the steroid receptor coactivator 3 (SRC-3) recruitment by the peroxisome proliferator-activated receptor gamma (PPAR gamma): non-selective agonists. [Related pubchem assays: 1301 (Confirmation screen.), 1048 (Primary screen.)]; assay type: functional
[4] = biological target: Peroxisome proliferator-activated receptor gamma/Nuclear receptor coactivator 1 (Homo sapiens, UniProt P37231); assay: TR-FRET dose response biochemical High Throughput Screening assay for agonists of the steroid receptor coactivator 1 (SRC-1) recruitment by the peroxisome proliferator-activated receptor gamma (PPAR gamma): non-selective agonists. [Related pubchem assays (depositor defined):AID1300, AID1808, AID504735, AID631]; assay type: protein assay
[5] = biological target: Peroxisome proliferator-activated receptor gamma/Nuclear receptor coactivator 2 (Homo sapiens, UniProt P37231); assay: TR-FRET dose response biochemical High Throughput Screening assay for agonists of the steroid receptor coactivator 2 (SRC-2) recruitment by the peroxisome proliferator-activated receptor gamma (PPAR gamma): non-selective agonists. [Related pubchem assays: 1297, 1032 ]; assay type: functional
[6] = cells; assay type: functional
[7] = THP-1 cell cytotoxicity, dose response, cytotoxicity control for non-replicating M. tuberculosis project (AID 489025); assay type: functional
[8] = biological target: T2, Protein RecA (Mycobacterium tuberculosis, UniProt P9WHJ3); assay: Fluorescence Cell-Free Homogeneous Dose Retest to Identify Inhibitors of RecA-Intein Splicing Activity. [Related pubchem assays (depositor defined):AID2097, AID2223, AID489010, AID492950]; assay type: functional
T2 sequence (P9WHJ3 whole entry): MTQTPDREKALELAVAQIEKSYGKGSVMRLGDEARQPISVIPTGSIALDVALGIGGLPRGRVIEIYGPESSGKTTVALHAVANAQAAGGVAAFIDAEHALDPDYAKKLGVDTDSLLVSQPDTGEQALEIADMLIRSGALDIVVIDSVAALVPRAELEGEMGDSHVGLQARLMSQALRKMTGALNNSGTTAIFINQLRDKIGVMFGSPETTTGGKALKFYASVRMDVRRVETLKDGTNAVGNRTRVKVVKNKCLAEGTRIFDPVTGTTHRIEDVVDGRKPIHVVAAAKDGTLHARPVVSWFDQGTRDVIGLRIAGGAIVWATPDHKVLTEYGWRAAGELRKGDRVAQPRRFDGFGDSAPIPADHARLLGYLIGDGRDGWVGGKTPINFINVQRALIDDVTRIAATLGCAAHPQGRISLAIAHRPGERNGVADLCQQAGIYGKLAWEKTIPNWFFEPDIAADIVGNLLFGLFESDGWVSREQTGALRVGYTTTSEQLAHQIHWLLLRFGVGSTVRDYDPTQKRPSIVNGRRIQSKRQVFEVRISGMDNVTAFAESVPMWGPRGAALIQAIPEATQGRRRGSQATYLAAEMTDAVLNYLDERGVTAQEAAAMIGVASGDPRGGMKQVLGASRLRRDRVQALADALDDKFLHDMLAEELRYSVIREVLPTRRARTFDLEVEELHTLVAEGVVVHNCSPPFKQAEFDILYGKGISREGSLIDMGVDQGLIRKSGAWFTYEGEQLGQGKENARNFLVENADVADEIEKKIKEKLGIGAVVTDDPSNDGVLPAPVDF

[9] = growth suppression of beta-catenin-knockout colon cells, dose response, cell-based, HCT116, human colon tumor (AID 1045); assay type: functional;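 also: HCT116 colon tumor cells with beta catenin knocked out; cells exposed to compound for 60 hours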
[10] = biological target: T3, Replicative DNA helicase DnaB (Mycobacterium tuberculosis, UniProt P9WMR3); assay: DnaB intein splicing inhibitors, dose response, biochemical, cell-free fluorescence (AID 449749); assay type: functional
T3 sequence (P9WMR3 whole entry): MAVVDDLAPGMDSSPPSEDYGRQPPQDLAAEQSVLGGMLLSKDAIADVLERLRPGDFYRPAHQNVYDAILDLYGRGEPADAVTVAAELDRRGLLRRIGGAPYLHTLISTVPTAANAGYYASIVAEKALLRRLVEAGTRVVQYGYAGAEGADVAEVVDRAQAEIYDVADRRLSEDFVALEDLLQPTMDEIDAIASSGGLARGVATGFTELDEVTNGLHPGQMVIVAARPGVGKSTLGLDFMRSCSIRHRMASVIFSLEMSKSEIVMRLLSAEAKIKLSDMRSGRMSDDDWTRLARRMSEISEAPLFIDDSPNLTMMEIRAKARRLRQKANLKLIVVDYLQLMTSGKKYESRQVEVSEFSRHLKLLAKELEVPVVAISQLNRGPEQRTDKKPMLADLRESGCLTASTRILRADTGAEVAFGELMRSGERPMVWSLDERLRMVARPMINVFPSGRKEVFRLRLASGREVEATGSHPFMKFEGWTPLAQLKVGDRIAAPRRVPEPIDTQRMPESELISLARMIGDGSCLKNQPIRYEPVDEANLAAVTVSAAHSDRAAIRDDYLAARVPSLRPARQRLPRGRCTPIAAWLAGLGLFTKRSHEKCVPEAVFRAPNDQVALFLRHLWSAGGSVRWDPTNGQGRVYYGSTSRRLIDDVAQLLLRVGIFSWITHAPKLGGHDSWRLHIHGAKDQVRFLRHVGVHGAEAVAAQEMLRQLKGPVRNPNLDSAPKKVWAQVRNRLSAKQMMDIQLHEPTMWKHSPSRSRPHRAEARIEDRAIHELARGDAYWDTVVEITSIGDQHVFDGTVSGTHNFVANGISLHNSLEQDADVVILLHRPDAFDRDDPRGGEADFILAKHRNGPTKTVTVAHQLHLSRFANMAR

[11] = growth suppression of PTEN-null colon cells, dose response, cell-based, HCT116 PTEN knockout (AID 1047); assay type: functional;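 also: HCT116 colon tumor cells with PTEN knocked out; cells exposed to compound for 60 hours before readout; potency for loss of cell viability measured by luminescence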
[12] = tested on: BJ; assay: cytotoxicity toward BJ-TERT fibroblasts, dose response, cell-based, RAS-independent, luminescence (AID 1933); assay type: functional; details: Homo sapiens
[13] = tested on: BJ; assay: cytotoxicity toward BJ-TERT-LT-ST fibroblasts, dose response, cell-based, RAS-independent, luminescence (AID 1935); assay type: functional; details: Homo sapiens;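 also: BJ fibroblasts immortalized with TERT plus LT and ST oncogenes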
[14] = cytotoxicity toward DRD oncogenic fibroblasts, dose response, cell-based, non-viral oncogenic, luminescence (AID 1934); assay type: functional; details: Homo sapiens
[15] = tested on: BJ; assay: cells; assay type: functional, cell-based; details: Homo sapiens
[16] = Luminescence Cell-Based Dose Retest to Confirm Inhibitors of Cancer Stem Cells. [Related pubchem assays (depositor defined):AID2717, AID2721]; assay type: functional; details: Homo sapiens
[17] = biological target: Nonstructural protein 1 (Influenza A virus, UniProt Q194T2); assay type: functional, Influenza A virus (A/California/07/2009(H1N1))
[18] = biological target: T4, High affinity choline transporter 1 (Homo sapiens, UniProt Q9GZV3); assay: CHT inhibitors, dose response, cell-based, 5-point CRC, membrane potential dye (AID 504840); assay type: functional
T4 sequence (Q9GZV3 whole entry): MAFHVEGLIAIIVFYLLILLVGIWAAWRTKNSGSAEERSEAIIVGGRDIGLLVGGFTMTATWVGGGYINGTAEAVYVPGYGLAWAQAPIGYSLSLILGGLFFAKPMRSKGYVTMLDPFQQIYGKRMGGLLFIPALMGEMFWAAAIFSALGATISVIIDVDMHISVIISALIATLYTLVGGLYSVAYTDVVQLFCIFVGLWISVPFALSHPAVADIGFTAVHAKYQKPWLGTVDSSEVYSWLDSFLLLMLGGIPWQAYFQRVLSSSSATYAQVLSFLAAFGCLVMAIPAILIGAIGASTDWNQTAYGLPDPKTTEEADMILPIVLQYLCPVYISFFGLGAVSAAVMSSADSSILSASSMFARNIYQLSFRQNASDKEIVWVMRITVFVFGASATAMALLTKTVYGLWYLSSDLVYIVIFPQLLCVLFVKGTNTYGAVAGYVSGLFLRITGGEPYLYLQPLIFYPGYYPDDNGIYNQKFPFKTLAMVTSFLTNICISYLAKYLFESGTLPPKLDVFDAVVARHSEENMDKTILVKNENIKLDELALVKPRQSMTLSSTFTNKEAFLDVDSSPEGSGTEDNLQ

[19] = biological target: T5, Polyadenylate-binding protein 1 (Homo sapiens, UniProt P11940); assay: PABP1 MLLE–PAM2 interaction inhibitors, dose response, miRNA deadenylation inhibitor project, biochemical, fluorescence polarization, Cy5-PAM2 peptide, secondary (AID 602260); assay type: functional; details: read-out: IC50_Mean
[20] = biological target: T5, Polyadenylate-binding protein 1; assay: PABP1 MLLE–PAM2 binding inhibitor potency, dose response, biochemical, fluorescence polarization, FITC-PAM2 peptide (AID 602259); assay type: functional; details: read-out: IC50_Mean
[21] = biological target: T6, Voltage-gated N-type calcium channel alpha-1B subunit/Amyloid beta A4 precursor protein-binding family A member 1 (Homo sapiens, UniProt Q00975+Q02410); assay type: protein assay
[22] = biological target: T6, Voltage-gated N-type calcium channel alpha-1B subunit/Amyloid beta A4 precursor protein-binding family A member 1; assay type: protein assay; remark: listed apart in the source
[23] = tested on: H9c2; assay: cells; assay type: functional, cell-based; details: Rattus norvegicus, H9c2, Myocardium;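 also: confirmatory concentration-response retest of ultra-high-throughput screening hits for modulation of myocardial damage; cell death induced by hydrogen peroxide oxidative stress; compound pretreatment for 60 min then peroxide exposure for 2 h; potency is for protecting the cells against peroxide damage rather than for killing them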

Nonstructural protein 1, sequence (Q194T2 whole entry): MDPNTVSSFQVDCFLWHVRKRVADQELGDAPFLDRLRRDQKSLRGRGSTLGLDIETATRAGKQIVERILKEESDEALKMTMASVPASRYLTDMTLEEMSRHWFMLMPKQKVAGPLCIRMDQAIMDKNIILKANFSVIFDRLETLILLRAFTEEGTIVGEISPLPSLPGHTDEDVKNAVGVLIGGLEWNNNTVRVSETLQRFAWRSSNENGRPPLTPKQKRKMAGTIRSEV
Peroxisome proliferator-activated receptor gamma/Nuclear receptor coactivator 3, sequence (P37231 whole entry): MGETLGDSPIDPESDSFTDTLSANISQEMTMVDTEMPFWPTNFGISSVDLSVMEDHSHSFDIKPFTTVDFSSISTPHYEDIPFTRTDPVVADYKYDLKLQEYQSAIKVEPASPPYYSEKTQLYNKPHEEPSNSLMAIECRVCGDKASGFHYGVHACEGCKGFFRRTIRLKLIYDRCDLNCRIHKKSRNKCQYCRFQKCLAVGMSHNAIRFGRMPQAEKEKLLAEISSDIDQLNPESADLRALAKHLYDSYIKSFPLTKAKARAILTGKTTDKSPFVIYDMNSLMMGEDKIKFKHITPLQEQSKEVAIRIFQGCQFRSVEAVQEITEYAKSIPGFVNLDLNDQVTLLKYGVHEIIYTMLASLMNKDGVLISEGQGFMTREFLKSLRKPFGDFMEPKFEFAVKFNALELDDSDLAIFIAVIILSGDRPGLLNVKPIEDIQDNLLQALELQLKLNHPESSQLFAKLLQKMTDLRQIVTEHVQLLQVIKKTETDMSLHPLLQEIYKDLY
Peroxisome proliferator-activated receptor gamma/Nuclear receptor coactivator 3, sequence (Q9Y6Q9 whole entry, further chain): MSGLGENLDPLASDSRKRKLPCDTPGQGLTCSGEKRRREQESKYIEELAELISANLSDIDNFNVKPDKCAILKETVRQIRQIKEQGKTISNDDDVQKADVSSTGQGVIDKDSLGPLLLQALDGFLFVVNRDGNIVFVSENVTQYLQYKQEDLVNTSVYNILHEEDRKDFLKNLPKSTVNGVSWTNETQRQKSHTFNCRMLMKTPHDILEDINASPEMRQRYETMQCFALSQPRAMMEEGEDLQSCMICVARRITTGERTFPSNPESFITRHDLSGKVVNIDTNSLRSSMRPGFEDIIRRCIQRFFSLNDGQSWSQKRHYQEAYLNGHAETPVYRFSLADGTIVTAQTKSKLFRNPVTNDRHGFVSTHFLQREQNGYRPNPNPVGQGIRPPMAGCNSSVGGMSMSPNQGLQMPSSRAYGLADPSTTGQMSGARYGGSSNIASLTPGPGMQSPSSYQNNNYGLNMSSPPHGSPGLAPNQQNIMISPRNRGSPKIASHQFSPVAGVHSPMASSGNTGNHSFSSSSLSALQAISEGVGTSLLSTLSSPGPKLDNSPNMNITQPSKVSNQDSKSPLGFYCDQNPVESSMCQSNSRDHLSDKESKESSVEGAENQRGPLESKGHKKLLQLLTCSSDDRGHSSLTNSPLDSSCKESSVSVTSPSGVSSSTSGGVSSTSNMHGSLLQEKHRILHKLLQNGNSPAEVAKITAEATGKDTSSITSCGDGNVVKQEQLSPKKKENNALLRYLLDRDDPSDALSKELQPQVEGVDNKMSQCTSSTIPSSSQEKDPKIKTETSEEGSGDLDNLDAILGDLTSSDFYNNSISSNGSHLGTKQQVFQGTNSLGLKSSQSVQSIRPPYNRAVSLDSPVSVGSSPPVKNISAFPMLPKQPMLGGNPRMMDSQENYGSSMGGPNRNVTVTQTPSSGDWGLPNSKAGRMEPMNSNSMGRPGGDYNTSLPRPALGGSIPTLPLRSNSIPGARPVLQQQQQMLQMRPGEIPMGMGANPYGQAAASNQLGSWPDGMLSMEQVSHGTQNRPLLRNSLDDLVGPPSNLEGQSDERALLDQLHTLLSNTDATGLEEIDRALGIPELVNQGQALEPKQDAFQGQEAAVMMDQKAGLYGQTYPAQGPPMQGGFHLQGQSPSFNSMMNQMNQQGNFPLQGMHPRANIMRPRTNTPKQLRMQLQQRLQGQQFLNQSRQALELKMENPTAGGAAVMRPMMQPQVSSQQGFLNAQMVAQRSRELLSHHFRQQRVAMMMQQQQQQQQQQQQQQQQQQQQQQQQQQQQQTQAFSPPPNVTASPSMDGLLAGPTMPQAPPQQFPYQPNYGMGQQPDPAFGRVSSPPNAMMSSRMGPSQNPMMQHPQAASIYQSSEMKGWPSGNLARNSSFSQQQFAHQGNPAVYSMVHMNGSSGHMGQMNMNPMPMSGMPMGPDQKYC
Peroxisome proliferator-activated receptor gamma/Nuclear receptor coactivator 2, sequence (P37231 whole entry): as the sequence (P37231 whole entry) above
Peroxisome proliferator-activated receptor gamma/Nuclear receptor coactivator 2, sequence (Q15596 whole entry, further chain): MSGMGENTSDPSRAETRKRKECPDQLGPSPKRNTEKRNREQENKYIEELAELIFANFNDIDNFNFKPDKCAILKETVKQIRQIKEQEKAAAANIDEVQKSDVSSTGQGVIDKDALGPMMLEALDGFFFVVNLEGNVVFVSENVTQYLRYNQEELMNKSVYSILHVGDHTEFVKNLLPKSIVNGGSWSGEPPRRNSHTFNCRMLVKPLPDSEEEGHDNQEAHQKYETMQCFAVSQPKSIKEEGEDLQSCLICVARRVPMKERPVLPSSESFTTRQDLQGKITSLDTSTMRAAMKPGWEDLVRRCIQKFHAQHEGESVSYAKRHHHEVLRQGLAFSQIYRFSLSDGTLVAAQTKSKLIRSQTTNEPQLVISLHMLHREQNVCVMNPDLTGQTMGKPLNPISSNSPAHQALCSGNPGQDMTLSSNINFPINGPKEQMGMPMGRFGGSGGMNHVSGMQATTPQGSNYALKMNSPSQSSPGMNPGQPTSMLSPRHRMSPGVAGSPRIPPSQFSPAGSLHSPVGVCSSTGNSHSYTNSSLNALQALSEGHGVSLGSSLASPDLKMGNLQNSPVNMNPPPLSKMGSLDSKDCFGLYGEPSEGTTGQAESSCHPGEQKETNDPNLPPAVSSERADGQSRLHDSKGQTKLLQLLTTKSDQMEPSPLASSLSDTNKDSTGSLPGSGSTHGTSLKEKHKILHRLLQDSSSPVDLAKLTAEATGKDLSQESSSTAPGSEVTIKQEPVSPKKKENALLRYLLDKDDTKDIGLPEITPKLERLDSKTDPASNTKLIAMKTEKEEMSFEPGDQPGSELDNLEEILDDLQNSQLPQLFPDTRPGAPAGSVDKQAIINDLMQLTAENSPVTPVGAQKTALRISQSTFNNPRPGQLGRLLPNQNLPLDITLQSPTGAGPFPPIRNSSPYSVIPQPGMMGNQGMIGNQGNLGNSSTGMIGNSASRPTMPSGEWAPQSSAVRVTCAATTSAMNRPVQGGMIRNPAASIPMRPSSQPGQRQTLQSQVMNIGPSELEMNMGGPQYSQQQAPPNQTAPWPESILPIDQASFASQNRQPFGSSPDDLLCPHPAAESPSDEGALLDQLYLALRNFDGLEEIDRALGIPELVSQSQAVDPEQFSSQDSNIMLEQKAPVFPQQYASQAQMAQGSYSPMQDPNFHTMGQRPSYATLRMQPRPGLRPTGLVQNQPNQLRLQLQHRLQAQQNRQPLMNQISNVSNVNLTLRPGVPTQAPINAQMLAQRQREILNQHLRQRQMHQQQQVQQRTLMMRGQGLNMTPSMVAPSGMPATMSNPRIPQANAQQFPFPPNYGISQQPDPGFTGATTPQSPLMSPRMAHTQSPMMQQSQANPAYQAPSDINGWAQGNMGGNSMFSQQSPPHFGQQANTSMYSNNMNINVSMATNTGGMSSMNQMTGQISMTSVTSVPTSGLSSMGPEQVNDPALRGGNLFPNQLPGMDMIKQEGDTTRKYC
T5 sequence (P11940 whole entry): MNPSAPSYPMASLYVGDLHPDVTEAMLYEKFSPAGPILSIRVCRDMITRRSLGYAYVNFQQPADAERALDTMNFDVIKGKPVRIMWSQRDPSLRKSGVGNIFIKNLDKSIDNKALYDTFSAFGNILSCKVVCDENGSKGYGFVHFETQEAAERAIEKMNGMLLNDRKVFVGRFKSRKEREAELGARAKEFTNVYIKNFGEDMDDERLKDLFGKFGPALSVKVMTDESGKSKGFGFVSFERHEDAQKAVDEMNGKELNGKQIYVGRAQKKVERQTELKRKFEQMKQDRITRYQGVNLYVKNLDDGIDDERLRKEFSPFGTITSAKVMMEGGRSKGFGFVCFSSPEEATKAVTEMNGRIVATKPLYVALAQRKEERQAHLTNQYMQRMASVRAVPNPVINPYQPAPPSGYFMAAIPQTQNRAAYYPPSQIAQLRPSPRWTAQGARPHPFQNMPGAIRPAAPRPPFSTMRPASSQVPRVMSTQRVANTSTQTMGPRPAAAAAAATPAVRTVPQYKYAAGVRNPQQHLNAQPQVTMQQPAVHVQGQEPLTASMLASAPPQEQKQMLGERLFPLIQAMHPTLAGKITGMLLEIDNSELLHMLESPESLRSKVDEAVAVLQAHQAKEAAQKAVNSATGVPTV

Clc1cc(Cl)cc(Nc2nc[nH]n2)c1
CC50 [1]: 22.7 µM (active)
IC50 [2]: 23.3 µM (active)

CCn1c(=O)cc(SCC(=O)Nc2cccnc2)c2ccccc21
EC50 [3]: > 79.4 µM (not active)
EC50 [4]: > 79.4 µM (inactive)
EC50 [5]: > 79.4 µM (not active)

CC(=O)OCCNc1cc(SCc2ccco2)c2nonc2c1[N+](=O)[O-]
IC50 [6]: 5.86 µM (active)
CC50 [7]: 30.1 µM (active)
EC50 [8]: 2.73 µM (active)
EC50 [9]: 17.6 µM (active)
AC50 [10]: 8.4 µM (active)
EC50 [11]: 23.7 µM (active)

CN(C)CCCNc1ccc(-c2cc(Nc3cccc(Cl)c3)ncn2)cn1
EC50 [12]: 14.1 µM (active)
EC50 [13]: > 75 µM (not active)
EC50 [14]: 22.6 µM (active)
EC50 [15]: > 150 µM (not active)
AC50 [16]: 4.54 µM (active)

Cc1ccc(S(=O)(=O)Nc2nncs2)cc1
IC50 [2]: 23.2 µM (active)

C=CCN1C=C/C(=C\C=C(C#N)C#N)c2ccccc21
IC50 [17]: 14.2 µM (active)

CCOC(=O)C1CSC(CC(=O)Nc2ccc(OCC)cc2)C(=O)N1 (centres undefined)
IC50 [2]: 11.4 µM (active)

O=C(O)CSc1nnc(CNc2cccc(C(F)(F)F)c2)n1Cc1ccco1
IC50 [2]: 48.8 µM (active)

Cc1ccc(NC(S)=Nc2ccc3nc(-c4ccccn4)c(-c4ccccn4)nc3c2)cc1C
IC50 [18]: 13.2 µM (active)

CCCCNC(=O)CSc1cc(=O)n(C)c2ccccc12
EC50 [3]: > 79.4 µM (not active)
EC50 [4]: > 79.4 µM (inactive)
EC50 [5]: > 79.4 µM (not active)

Cc1sc(NC(=S)Nc2ccc(F)cc2)c(C(N)=O)c1C
EC50 [3]: > 79.4 µM (not active)
EC50 [4]: 9.36 µM (active)
EC50 [5]: 9.42 µM (active)
IC50 [19]: > 66 µM (inactive)
IC50 [2]: 53.1 µM (active)
IC50 [20]: > 66 µM (inactive)

O=C(COC(=O)CNC(=O)c1ccc(-c2ccccc2)cc1)NCc1ccco1
IC50 [21]: 5.35 µM (active)
IC50 [22]: 49.5 µM (active)

O=C(Nc1ccc(F)cc1)C1=CC(=O)N2CCN=C2S1
IC50 [21]: 10.7 µM (active)
IC50 [22]: > 50 µM (inactive)

CCN(C(=O)CN1C(=O)S/C(=C\C=C\c2ccccc2)C1=O)C1CCS(=O)(=O)C1 (centres undefined)
IC50 [21]: > 56.8 µM (not active)
IC50 [22]: > 50 µM (inactive)

Cc1cc(=O)oc2cc(NC(=O)c3cccc(Br)c3)ccc12
IC50 [21]: 5.32 µM (active)
IC50 [22]: > 50 µM (inactive)

Cc1ccc(S(=O)(=O)/N=C2\C(=O)c3ccccc3C(O)=C2N2CCN(c3ccccc3F)CC2)cc1
IC50 [17]: 79.2 µM (active)

CCCn1c2ccccc2c2cnn(CC(=O)OC)c(=O)c21
IC50 [18]: 15.8 µM (active)

COc1ccccc1OCC(=O)N/N=C/c1cccc2cccnc12
IC50 [23]: 10.9 µM (active)
IC50 [17]: 13.5 µM (active)

Oc1ccc(/C=N/NC(=S)Nc2cccnc2)cc1O
IC50 [2]: 49.6 µM (active)

Fc1ccccc1CCNc1c2c(nc3ncnn13)CCCC2
IC50 [18]: 13.8 µM (active)
